Assay results: patent publication US9822104B2, “Taxifolin derivative with superior antioxidant effect and cosmetic composition containing the same” (Yeomyung Biochem Co., Ltd, priority 2015, dated 2017)

What was measured:
[1] = FRAP assay (ferric reducing ability); type: biochemical; conditions: for FRAP value: 37° C. for 10 minutes, absorbance at 593 nm, FeSO4 calibration, ascorbic acid control at 1 mg/mL, Table 2
Experimental: FRAP assay of the samples was conducted by slightly modifying the method of Benzie and Strain (Benzie I F F, Strain J J. 1996. The ferric reducing ability of plasma (FRAP) as a measure of “Antioxidant power”: The FRAP assay. Anal Biochem 230: 70-79). The FRAP reagent was prepared by heating 25 mL acetate buffer (300 mM, pH 3.6) at 37′ C and adding a solution of 5 mL of 10 mM 2,4,6-tris(2-pyridyl)-s-triazine (TPTZ, Sigma) and 2.5 mL of 20 mM […] in 40 mM HCl thereto. 0.03 mL of the sample (Example 1 or Example 2) and 0.09 mL of distilled water were added to 0.9 mL of the prepared FRAP reagent, reaction was proceeded at 37° C. for 10 minutes and absorbance at 593 nm was measured using a spectrophotometer (Benchmark PLUS Bio-Rad). Distilled water, instead of the sample, was used as the blank. 1 mg/mL of ascorbic acid was used as a control group. A calibration equation for FeSO4 made by repetition at different concentrations of 0.125, 0.25, 0.5, 1 and 2 mM was obtained and measurement values of the samples were converted to FRAP values by applying the measurement values thereto. All measurements were repeated three times.

[2] = DPPH radical scavenging assay; type: biochemical; conditions: for Antioxidative activity (IC50 mg/mL): DPPH radical scavenging, absorbance at 517 nm, reacted in the dark one hour, repeated three times, Table 1; for IC50 of DPPH radical scavenging activity: FIGS. 15A and 15B
Experimental: The antioxidant effect of synthesized taxifolin derivative was measured using a DPPH(1,1-diphenyl-2-picrylhydrazyl) radical (Blois M S. 1958. Antioxidant determination by the use of a stable free radical. Nature 25: 1199-1120). For measurement, different concentrations of 0.1 mL of the synthesized taxifolin derivatives were prepared and then mixed with 2.5 mL of ethanol. 0.5 mL of a 0.2 mM DPPH solution was added to the resulting mixture and reacted in the dark for one hour. Then, the absorbance of the reaction product was measured at 517 nm using a UV/Vis-spectrophotometer (BIO-RAD, USA). All tests were repeated three times, methanol was used as a blank sample and DPPH radical effect was calculated in accordance with the following Equation 1. DPPH radical scavenging activity was represented by IC50 (the concentration required for 50% inhibition). Scavenging effect (%)=(A−B)/A×100 [Equation 1]
where A=absorbance at 517 nm without test sample
where B=absorbance at 517 nm with test sample

Compound	Antioxidative activity (IC50 mg/mL) [2] [mg/mL]	IC50 of DPPH radical scavenging activity [2]	IC50 of DPPH radical scavenging activity ([2]; listed as Example 2)	FRAP value [1] [mM]	FRAP value, ranking in words ([1]; FIG. 16, comparison among the samples)
O=C1O[C@H]([C@@H](O)CO)C(O)=C1O [Ascorbic acid, ascorbic acid]	–	–	–	3.7 ± 0.007	–
OCCCCCC1CCSS1 (stereo not drawn) [Lipoic alcohol]	3.22 ± 0.05	–	–	1.24 ± 0.007	–
O=C(CCCCC1CCSS1)Oc1cc(OC(=O)CCCCC2CCSS2)c2c(c1)OC(c1ccc(OC(=O)CCCCC3CCSS3)c(OC(=O)CCCCC3CCSS3)c1)C(OC(=O)CCCCC1CCSS1)C2=O (stereo not drawn) [Taxifolin penta lipoate, 2-(3,4-bis(5-(1,2-dithiolan-3-yl)pentanoyloxy)phenyl)-4-oxochroman-3,5,7-triyl tris(5-(1,2-dithiolan-3-yl)pentanoate)]	–	220 ± 3 µg/mL	very low IC50	3.57 ± 0.146	next highest value

Continued, in another order:

Antioxidative activity (IC50 mg/mL) [2] [mg/mL]	IC50 of DPPH radical scavenging activity [2]	IC50 of DPPH radical scavenging activity ([2]; listed as Example 2)	Compound	FRAP value [1] [mM]	FRAP value, ranking in words ([1]; FIG. 16, comparison among the samples)
515.77 ± 5.41	about 250 mg/ml	–	O=C(O)CCCC[C@@H]1CCSS1 (racemic) [Lipoic acid]	1.14 ± 0.019	–
–	about 2,000 mg/ml	–	CC1(C)SCCC(CCCCC(=O)O)S1 (stereo not drawn) [Lipoic acid (dithiol protection), 5-(2,2-dimethyl-1,3-dithian-4-yl)pentanoic acid]	0.74 ± 0.006	–
